Measurements reported in US5438052A, “Cephalosporin derivatives” (Hoffmann-La Roche Inc., priority 1991, dated 1995).
Converted amounts (≈) assume the structure as drawn. Counter-ions that a name gives are not always drawn. Like-named read-outs stand apart in the source and are kept apart here.

What was measured:
C. freundii 902 = experiment: Minimum inhibitory concentration in vitro, agar dilution method; type: cell-based; settings: Citrobacter freundii
Excerpt: (§1) 1. Minimum Inhibitory Concentration in vitro
(§2) The activities ascertained, minimum inhibitory concentration (MIC) in μg/ml, are compiled in Table 1 hereinafter: […]

E. aerogenes CF153 = experiment: as above; type: cell-based; settings: Klebsiella aerogenes
Excerpt: as §1, §2

E. cloacae 908R = experiment: as above; type: cell-based; settings: Enterobacter cloacae
Excerpt: as §1, §2

E. cloacae 908SSi = experiment: as above; type: cell-based; settings: Enterobacter cloacae
Excerpt: as §1, §2

E. cloacae P99 = experiment: as above; type: cell-based; settings: Enterobacter cloacae
Excerpt: as §1, §2

E. coli 25922 [1] = experiment: as above; type: cell-based; settings: Escherichia coli
Excerpt: as §1, §2

K. oxytoca 1082 = experiment: as above; type: cell-based; settings: Klebsiella oxytoca
Excerpt: as §1, §2

K. pneumoniae 418 = experiment: as above; type: cell-based; settings: Klebsiella pneumoniae
Excerpt: as §1, §2

P. aeruginosa 27853 = experiment: as above; type: cell-based; settings: Pseudomonas aeruginosa
Excerpt: as §1, §2

P. aeruginosa 799/61 = experiment: as above; type: cell-based; settings: Pseudomonas aeruginosa
Excerpt: as §1, §2

P. aeruginosa 799/WT = experiment: as above; type: cell-based; settings: Pseudomonas aeruginosa
Excerpt: as §1, §2

P. aeruginosa BA = experiment: as above; type: cell-based; settings: Pseudomonas aeruginosa
Excerpt: as §1, §2

P. aeruginosa MK1184 = experiment: as above; type: cell-based; settings: Pseudomonas aeruginosa
Excerpt: as §1, §2

P. mirabilis 2117 = experiment: as above; type: cell-based; settings: Proteus mirabilis
Excerpt: as §1, §2

P. vulgaris 1028 = experiment: as above; type: cell-based; settings: Proteus vulgaris
Excerpt: as §1, §2

S. aureus 6538 = experiment: as above; type: cell-based; settings: Staphylococcus aureus
Excerpt: as §1, §2

S. marcescens 69438 = experiment: as above; type: cell-based; settings: Serratia marcescens
Excerpt: as §1, §2

S. pyogenes 15 = experiment: as above; type: cell-based; settings: Streptococcus pyogenes
Excerpt: as §1, §2

E. coli 25922 [2] = experiment: Experimental systemic septicaemia in the mouse; type: in vivo; settings: 96 h
Description: (§3) 2. Experimental systemic septicaemia in the mouse
(§4) An experimental systemic septicaemia was produced in albino mice weighing 16-20 g by intraperitoneally injecting into the experimental animals a sample of a dilute culture of the test organism which had been grown overnight. The sample administered is calculated such that the dosage administered is about 5-100 times greater than the dosage which is required to kill 50% of untreated experimental animals within 48 hours. The bacteria were injected as a suspension in the culture broth. Groups of 5 experimental animals each were used not only for the control, but also for the treatment for each dosage tested. The products in accordance with the invention were administered subcutaneously as a suspension in Tween 80 (2%), whereby the concentrations were chosen such that each experimental animal received 500 μl per administration. The respective concentrations were administered twice, namely 1 and 3 hours after the infection (in the case of P. aeruginosa three times, namely 1, 3 and 5 hours after the infection). The ED50 is that dosage which protects 50% of the experimental animals and was calculated by means of the Probit method on the basis of the survial rate after 4 days following the infection. The ED50 values in mg/kg s.c. (subcutaneous) for representatives of the class of substance in accordance with the invention are given in Table 2 hereinafter.

[3] = system: Pseudomonas aeruginosa BA; experiment: Experimental systemic septicaemia in the mouse; type: in vivo; settings: sc, 96 h
Description: as §3, §4

[4] = C. freundii 902, agar dilution, read-out: MIC
[5] = E. aerogenes CF153, agar dilution, read-out: MIC
[6] = E. cloacae 908R, agar dilution, read-out: MIC
[7] = E. cloacae 908SSi, agar dilution, read-out: MIC
[8] = E. coli 25922, agar dilution, read-out: MIC
[9] = K. oxytoca 1082, agar dilution, read-out: MIC
[10] = K. pneumoniae 418, agar dilution, read-out: MIC
[11] = P. aeruginosa 27853, agar dilution, read-out: MIC
[12] = P. aeruginosa 799/61, agar dilution, read-out: MIC
[13] = P. aeruginosa 799/WT, agar dilution, read-out: MIC
[14] = P. aeruginosa BA, agar dilution, read-out: MIC
[15] = P. aeruginosa MK1184, agar dilution, read-out: MIC
[16] = P. mirabilis 2117, agar dilution, read-out: MIC
[17] = P. vulgaris 1028, agar dilution, read-out: MIC
[18] = S. aureus 6538, agar dilution, read-out: MIC
[19] = S. marcescens 69438, agar dilution, read-out: MIC
[20] = S. pyogenes 15, agar dilution, read-out: MIC
[21] = Escherichia coli, sc, E. coli 25922, albino mice, s.c. 1 and 3 hours after infection, survival after 4 days, read-out: ED50
[22] = P. aeruginosa BA, albino mice, s.c. 1, 3 and 5 hours after infection, survival after 4 days, read-out: ED50

SMILES | MIC (E. cloacae P99) [µg/mL] | MIC (C. freundii 902; [4]) [µg/mL] | MIC (E. aerogenes CF153; [5]) [µg/mL] | MIC (E. cloacae 908R; [6]) [µg/mL] | MIC (E. cloacae 908SSi; [7]) [µg/mL] | MIC (E. coli 25922 [1]; [8]) [µg/mL] | MIC (K. oxytoca 1082; [9]) [µg/mL] | MIC (K. pneumoniae 418; [10]) [µg/mL] | MIC (P. aeruginosa 27853; [11]) [µg/mL] | MIC (P. aeruginosa 799/61; [12]) [µg/mL] | MIC (P. aeruginosa 799/WT; [13]) [µg/mL] | MIC (P. aeruginosa BA; [14]) [µg/mL] | MIC (P. aeruginosa MK1184; [15]) [µg/mL] | MIC (P. mirabilis 2117; [16]) [µg/mL] | MIC (P. vulgaris 1028; [17]) [µg/mL] | MIC (S. aureus 6538; [18]) [µg/mL] | MIC (S. marcescens 69438; [19]) [µg/mL] | MIC (S. pyogenes 15; [20]) [µg/mL] | ED50 (E. coli 25922 [2]; [21]) [mg/kg] | ED50 [3, 22] [mg/kg] | further results
Cc1cc(SCC2=C(C(=O)[O-])N3C(=O)[C@@H](NC(=O)/C(=N\OCc4nc(=O)c(O)c[nH]4)c4csc(N)n4)[C@H]3SC2)n2nc(COC(=O)c3ccc(O)c(O)c3)nc2n1.[Na+] [Example 6, (6R,7R)-7-[(Z)-2-(2-amino-4-thiazolyl)-2-[[(1,4-dihydro-5-hydroxy-4-oxo-2-pyrimidinyl)methoxy]imino]acetamido]-3-[[[2-[[(3,4-dihydroxybenzoyl)oxy]methyl]-5-methyl-s-triazolo[1,5-a]pyrimidin-7-yl]thio]methyl]-8-oxo-5-thia-1-azabicyclo[4.2.0]oct-2-ene-2-carboxylic acid sodium salt (1:1)] | 4 |  |  |  |  |  |  |  |  |  |  |  |  |  |  |  |  |  |  |  | MIC (C. freundii 902; 902): < 0.1 µg/mL; MIC (E. aerogenes CF153; CF153): < 0.1 µg/mL; MIC (E. cloacae 908R; 908R): 0.12 µg/mL; MIC (E. cloacae 908SSi; 908SSI): 4 µg/mL; MIC (E. coli 25922 [1]; 25922): < 0.1 µg/mL; MIC (K. oxytoca 1082; 1082): 0.12 µg/mL; MIC (K. pneumoniae 418; 418): < 0.1 µg/mL; MIC (P. aeruginosa 27853; 27853): < 0.1 µg/mL; MIC (P. aeruginosa 799/61; 799/61): < 0.1 µg/mL; MIC (P. aeruginosa 799/WT; 799/WT): < 0.1 µg/mL; MIC (P. aeruginosa BA): < 0.1 µg/mL; MIC (P. aeruginosa MK1184; MK1184): < 0.1 µg/mL; MIC (P. mirabilis 2117; 2117): 0.25 µg/mL; MIC (P. vulgaris 1028; 1028): < 0.1 µg/mL; MIC (S. aureus 6538; 6538): 16 µg/mL; MIC (S. marcescens 69438; 69438): 0.12 µg/mL; MIC (S. pyogenes 15; 15): 2 µg/mL; ED50 (E. coli 25922 [2]; Escherichia coli, 25922, sc): < 0.2 mg/kg; ED50 [3]: 0.3 mg/kg
Nc1nc(/C(=N/OCc2ccc(O)c(O)c2F)C(=O)N[C@@H]2C(=O)N3C(C(=O)O)=C(CSc4nc(-c5ccccc5)ncc4-c4ccc(O)c(O)c4)CS[C@H]23)cs1 [Example 15] | 16 (≈ 19.6 µM) | 0.25 (≈ 0.306 µM) | 0.12 (≈ 0.147 µM) | 2 (≈ 2.45 µM) | 16 (≈ 19.6 µM) | < 0.1 | 0.5 (≈ 0.611 µM) | < 0.1 | 1 (≈ 1.22 µM) | < 0.1 | 0.5 (≈ 0.611 µM) | 0.5 (≈ 0.611 µM) | 32 (≈ 39.1 µM) | 0.12 (≈ 0.147 µM) | 0.5 (≈ 0.611 µM) | 32 (≈ 39.1 µM) | 1 (≈ 1.22 µM) | 0.12 (≈ 0.147 µM) | 0.9 | > 2 | 
Cc1cc(SCC2=C(C(=O)O)N3C(=O)[C@@H](NC(=O)/C(=N\OCc4nc(=O)c(O)c[nH]4)c4csc(N)n4)[C@H]3SC2)n2nc(CNS(=O)(=O)c3ccc(O)c(O)c3)nc2n1 [Example 2, (6R,7R)-7-[(Z)-2-(2-amino-4-thiazolyl)-2-[[(1,4-dihydro-5-hydroxy-4-oxo-2-pyrimidinyl)methoxy]imino]acetamido]-3-[[[2-[(3,4-dihydroxybenzenesulphonamido)methyl]-5-methyl-s-triazolo[1,5-a]pyrimidinyl-7-yl]thio]methyl]-8-oxo-5-thia-1-azabicyclo[4.2.0]oct-2-ene-2-carboxylic acid sodium salt (1:1)] | 16 | < 0.1 | 0.5 | 1 | 4 | < 0.1 | 4 | < 0.25 | < 0.1 | < 0.1 | 0.12 | < 0.1 | 0.25 | 0.25 | 0.5 | 32 | < 0.25 | 2 | 0.3 |  | 
Cc1cc(SCC2=C(C(=O)O)N3C(=O)[C@@H](NC(=O)/C(=N\OCc4ccc(O)c(O)c4F)c4csc(N)n4)[C@H]3SC2)n2nc(COC(=O)c3ccc(O)c(O)c3)nc2n1 [Example 9] | 8 (≈ 9.37 µM) | < 0.1 | < 0.1 | 0.12 (≈ 0.141 µM) | 4 (≈ 4.68 µM) | < 0.1 | < 0.1 | < 0.1 | < 0.1 | < 0.1 |  | < 0.1 | < 0.1 | < 0.1 | < 0.1 | 8 (≈ 9.37 µM) | < 0.1 | 1 (≈ 1.17 µM) | < 0.05 | 0.24 | 
